Source: EP4745135A1 (Gluetacs Therapeutics (Shanghai) Co., Ltd., priority 2023, dated 2025)

What was measured:
CK1α = target: T1, CK1α (Homo sapiens, UniProt P48729+Q96SW2); assay: Western blot, degradation of substrate protein in hPBMCs; assay type: cell-based
T1 construct: effects of the compounds of the present disclosure on the expression of target proteins in cells; endogenous in cells; host or cells: human PBMCs (Milecell Biotechnologies)

IKZF1 = target: T2, IKZF1 (Homo sapiens, UniProt Q13422+Q96SW2); assay: as above; assay type: cell-based
T2 construct: effects of the compounds of the present disclosure on the expression of target proteins in cells; endogenous in cells; host or cells: human PBMCs (Milecell Biotechnologies)
T2 sequence (Q13422 whole entry): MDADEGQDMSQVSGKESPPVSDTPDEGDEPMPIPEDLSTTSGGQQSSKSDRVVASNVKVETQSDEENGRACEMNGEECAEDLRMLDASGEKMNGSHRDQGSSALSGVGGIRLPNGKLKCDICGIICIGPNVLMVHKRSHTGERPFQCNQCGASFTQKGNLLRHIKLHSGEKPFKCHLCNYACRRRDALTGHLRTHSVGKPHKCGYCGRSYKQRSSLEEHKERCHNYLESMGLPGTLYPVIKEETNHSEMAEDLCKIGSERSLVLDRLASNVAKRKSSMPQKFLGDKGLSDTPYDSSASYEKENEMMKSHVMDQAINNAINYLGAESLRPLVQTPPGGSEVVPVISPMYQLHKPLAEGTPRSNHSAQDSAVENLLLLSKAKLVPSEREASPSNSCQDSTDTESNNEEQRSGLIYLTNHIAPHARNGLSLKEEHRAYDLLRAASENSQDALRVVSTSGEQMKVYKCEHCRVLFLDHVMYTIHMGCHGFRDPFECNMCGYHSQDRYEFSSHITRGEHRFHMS
T2 sequence (Q96SW2 whole entry): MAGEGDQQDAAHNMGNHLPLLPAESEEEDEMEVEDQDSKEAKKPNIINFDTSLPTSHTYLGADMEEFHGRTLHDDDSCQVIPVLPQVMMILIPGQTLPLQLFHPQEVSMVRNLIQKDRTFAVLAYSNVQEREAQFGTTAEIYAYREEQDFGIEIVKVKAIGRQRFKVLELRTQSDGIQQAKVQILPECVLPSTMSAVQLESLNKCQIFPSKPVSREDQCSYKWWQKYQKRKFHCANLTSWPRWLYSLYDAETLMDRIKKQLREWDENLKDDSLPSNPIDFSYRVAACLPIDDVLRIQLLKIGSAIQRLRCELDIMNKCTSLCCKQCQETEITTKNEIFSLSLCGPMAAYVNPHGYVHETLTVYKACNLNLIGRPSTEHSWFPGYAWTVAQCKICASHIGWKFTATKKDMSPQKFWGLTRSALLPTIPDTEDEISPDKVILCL
T2 sequence (Q16531 whole entry partner): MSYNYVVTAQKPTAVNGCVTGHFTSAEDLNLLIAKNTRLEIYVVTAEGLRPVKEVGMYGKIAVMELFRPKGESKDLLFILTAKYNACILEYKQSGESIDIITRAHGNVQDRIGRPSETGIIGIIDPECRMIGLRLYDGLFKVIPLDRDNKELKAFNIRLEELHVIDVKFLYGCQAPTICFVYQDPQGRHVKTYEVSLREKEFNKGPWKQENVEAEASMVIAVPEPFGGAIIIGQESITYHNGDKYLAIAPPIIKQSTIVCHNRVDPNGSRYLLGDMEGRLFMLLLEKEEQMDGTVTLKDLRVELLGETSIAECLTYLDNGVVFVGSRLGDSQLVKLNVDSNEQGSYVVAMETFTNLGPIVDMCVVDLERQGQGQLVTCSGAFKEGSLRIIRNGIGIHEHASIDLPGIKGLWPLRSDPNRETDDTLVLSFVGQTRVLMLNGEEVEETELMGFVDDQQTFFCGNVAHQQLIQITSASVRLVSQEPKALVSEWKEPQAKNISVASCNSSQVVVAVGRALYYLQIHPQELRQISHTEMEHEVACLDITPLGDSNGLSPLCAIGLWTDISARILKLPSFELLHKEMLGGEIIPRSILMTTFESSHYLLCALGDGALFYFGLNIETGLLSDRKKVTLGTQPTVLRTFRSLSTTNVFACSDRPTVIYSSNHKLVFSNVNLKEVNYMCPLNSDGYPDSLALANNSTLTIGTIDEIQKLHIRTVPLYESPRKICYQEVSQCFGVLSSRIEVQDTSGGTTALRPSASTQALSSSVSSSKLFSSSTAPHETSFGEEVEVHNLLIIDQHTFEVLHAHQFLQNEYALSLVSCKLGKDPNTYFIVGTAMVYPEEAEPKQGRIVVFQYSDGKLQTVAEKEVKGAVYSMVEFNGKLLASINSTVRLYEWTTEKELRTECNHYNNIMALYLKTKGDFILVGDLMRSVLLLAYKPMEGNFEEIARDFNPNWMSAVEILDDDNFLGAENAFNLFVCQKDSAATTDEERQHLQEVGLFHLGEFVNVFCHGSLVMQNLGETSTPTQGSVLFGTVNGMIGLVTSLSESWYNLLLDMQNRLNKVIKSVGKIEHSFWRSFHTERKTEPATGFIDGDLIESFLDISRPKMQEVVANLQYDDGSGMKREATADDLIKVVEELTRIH

IKZF2 = target: T3, IKZF2 (Homo sapiens, UniProt Q96SW2+Q9UKS7); assay: as above; assay type: cell-based
T3 construct: effects of the compounds of the present disclosure on the expression of target proteins in cells; endogenous in cells; host or cells: human PBMCs (Milecell Biotechnologies)
T3 sequence (Q9UKS7 whole entry): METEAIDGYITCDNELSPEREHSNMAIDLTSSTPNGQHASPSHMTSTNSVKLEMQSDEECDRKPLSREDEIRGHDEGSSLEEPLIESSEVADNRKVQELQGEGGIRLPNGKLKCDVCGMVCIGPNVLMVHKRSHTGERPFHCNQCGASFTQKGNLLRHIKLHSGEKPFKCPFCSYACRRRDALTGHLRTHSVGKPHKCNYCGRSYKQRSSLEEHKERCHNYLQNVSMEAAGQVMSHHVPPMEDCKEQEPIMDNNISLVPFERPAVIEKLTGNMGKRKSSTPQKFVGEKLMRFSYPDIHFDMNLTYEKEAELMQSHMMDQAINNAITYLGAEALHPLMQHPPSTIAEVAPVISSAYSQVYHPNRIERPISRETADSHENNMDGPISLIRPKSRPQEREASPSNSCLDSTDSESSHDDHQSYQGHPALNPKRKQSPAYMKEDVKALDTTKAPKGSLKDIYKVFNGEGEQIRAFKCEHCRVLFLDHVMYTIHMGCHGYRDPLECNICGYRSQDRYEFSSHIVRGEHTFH
T3 sequence (Q96SW2 whole entry): as the sequence (Q96SW2 whole entry) above
T3 sequence (Q16531 whole entry partner): as the sequence (Q16531 whole entry partner) above

IKZF3 = target: T4, IKZF3 (Homo sapiens, UniProt Q96SW2+Q9UKT9); assay: as above; assay type: cell-based
T4 construct: effects of the compounds of the present disclosure on the expression of target proteins in cells; endogenous in cells; host or cells: human PBMCs (Milecell Biotechnologies)
T4 sequence (Q9UKT9 whole entry): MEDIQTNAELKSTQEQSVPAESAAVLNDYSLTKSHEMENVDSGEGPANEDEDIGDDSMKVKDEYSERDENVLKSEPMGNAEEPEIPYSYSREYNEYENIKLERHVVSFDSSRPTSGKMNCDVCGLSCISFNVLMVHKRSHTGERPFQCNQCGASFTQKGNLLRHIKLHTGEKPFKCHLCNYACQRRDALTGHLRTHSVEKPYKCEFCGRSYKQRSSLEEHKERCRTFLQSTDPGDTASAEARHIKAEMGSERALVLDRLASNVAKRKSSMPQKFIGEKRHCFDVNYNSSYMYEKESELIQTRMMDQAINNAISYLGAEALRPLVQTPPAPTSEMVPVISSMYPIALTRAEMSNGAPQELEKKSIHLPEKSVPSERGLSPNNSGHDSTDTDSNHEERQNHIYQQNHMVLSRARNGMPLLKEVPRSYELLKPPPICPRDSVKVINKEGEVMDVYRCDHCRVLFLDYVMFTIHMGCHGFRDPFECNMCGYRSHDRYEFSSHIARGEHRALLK
T4 sequence (Q96SW2 whole entry): as the sequence (Q96SW2 whole entry) above
T4 sequence (Q16531 whole entry partner): as the sequence (Q16531 whole entry partner) above

WEE1 = target: T5, WEE1 (Homo sapiens, UniProt P30291+Q96SW2); assay: as above; assay type: cell-based
T5 construct: effects of the compounds of the present disclosure on the expression of target proteins in cells; endogenous in cells; host or cells: human PBMCs (Milecell Biotechnologies)
T5 sequence (P30291 whole entry): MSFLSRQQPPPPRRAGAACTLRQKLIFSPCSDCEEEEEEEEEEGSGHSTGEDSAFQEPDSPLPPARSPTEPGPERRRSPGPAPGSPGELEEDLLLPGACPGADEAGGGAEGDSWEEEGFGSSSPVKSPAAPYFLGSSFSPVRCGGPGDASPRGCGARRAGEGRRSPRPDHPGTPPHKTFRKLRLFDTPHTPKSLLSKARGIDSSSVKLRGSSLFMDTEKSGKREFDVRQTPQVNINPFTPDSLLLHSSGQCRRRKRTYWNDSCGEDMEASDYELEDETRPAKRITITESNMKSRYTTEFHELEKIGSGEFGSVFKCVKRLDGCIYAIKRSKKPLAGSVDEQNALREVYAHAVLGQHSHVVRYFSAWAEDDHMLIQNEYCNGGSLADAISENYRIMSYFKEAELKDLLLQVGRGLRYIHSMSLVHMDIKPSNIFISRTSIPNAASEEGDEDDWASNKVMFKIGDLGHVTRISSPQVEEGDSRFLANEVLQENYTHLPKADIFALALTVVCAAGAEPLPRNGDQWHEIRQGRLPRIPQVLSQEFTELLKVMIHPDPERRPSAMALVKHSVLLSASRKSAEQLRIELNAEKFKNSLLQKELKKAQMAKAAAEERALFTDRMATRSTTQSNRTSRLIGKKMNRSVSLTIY
T5 sequence (Q96SW2 whole entry): as the sequence (Q96SW2 whole entry) above
T5 sequence (Q16531 whole entry partner): as the sequence (Q16531 whole entry partner) above

GSPT1 = assay: as above; assay type: cell-based, Human
[1] = target: T6, human Cereblon WT GST-tagged protein (Homo sapiens, UniProt Q96SW2); assay: CRBN-binding affinity, HTRF (CEREBLON BINDING kit); details: for inhibition at 0.5 µM: read-out: Inhibition Rate at 0.5 µM (%); for inhibition at 2 µM: read-out: Inhibition Rate at 2 µM (%)
T6 construct: purchased CISBIO 64BDCRBNPEH
T6 sequence (Q96SW2 whole entry): as the sequence (Q96SW2 whole entry) above

[2] = Western blot, 24 hours of compound treatment, compounds tested at 50 nM and 500 nM (concentration for the table not stated)
[3] = 24 hours treatment, compounds at 50 nM and 500 nM (concentration behind the class not stated)

T1 sequence (P48729 whole entry): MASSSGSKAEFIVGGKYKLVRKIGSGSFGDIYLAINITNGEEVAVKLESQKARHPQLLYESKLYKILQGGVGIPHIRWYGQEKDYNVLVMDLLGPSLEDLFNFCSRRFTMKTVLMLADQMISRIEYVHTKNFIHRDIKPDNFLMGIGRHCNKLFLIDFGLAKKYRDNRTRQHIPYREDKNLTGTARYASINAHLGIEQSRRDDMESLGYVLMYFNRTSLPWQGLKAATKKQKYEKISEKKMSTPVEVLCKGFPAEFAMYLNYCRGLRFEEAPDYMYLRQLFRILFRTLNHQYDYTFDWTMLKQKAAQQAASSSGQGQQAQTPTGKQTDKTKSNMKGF
T1 sequence (Q96SW2 whole entry): as the sequence (Q96SW2 whole entry) above
T1 sequence (Q16531 whole entry partner): as the sequence (Q16531 whole entry partner) above

Row | Structure (SMILES) | inhibition at 0.5 µM [1] | inhibition at 2 µM [1] | CK1α substrate protein remaining % (CK1α; [2]) | IKZF 1 substrate protein remaining % (IKZF1; [2]) | IKZF2 substrate protein remaining % (IKZF2; [2]) | IKZF3 substrate protein remaining % (IKZF3; [2]) | Wee1 substrate protein remaining % (WEE1; [2]) | GSPT1 substrate protein remaining % (GSPT1; [2]) | CK1α substrate protein remaining % (CK1α; [3]) | IKZF 1 substrate protein remaining % (IKZF1; [3]) | IKZF2 substrate protein remaining % (IKZF2; [3]) | IKZF3 substrate protein remaining % (IKZF3; [3]) | Wee1 substrate protein remaining % (WEE1; [3]) | GSPT1 substrate protein remaining % (GSPT1; [3])
1 | COc1cccc(N2CCN(Cc3cccc4c3CN(C3CCC(=O)NC3=O)C4=S)CC2)c1 (stereo not drawn) [GT-08304, 3-(4-((4-(3-methoxyphenyl)piperazin-1-yl)methyl)-1-thioxoisoindolin-2-yl)piperidine-2,6-dione] | 60 to 80% | 60 to 80% | B (80%< substrate protein remaining %≤ 100%) | A (0% ≤ substrate protein remaining % ≤ 80%) | B (80%< substrate protein remaining %≤ 100%) | B (80%< substrate protein remaining %≤ 100%) | A (0% ≤ substrate protein remaining % ≤ 80%) | B (80%< substrate protein remaining %≤ 100%) |  |  |  |  |  | 
2 | Cc1ccc(C2=CCN(Cc3cccc4c3CN(C3CCC(=O)NC3=O)C4=S)CC2)s1 (stereo not drawn) [GT-08307, 3-(4-((4-(5-methylthiophen-2-yl)-3,6-dihydropyridin-1(2H)-yl)methyl)-1-thioxoisoindolin-2-yl)piperidine-2,6-dione] | 53 to 60% | 80 to 100% |  |  |  |  |  |  | B (80%< substrate protein remaining %≤ 100%) | B (80%< substrate protein remaining %≤ 100%) | B (80%< substrate protein remaining %≤ 100%) | B (80%< substrate protein remaining %≤ 100%) | A (0% ≤ substrate protein remaining % ≤ 80%) | B (80%< substrate protein remaining %≤ 100%)
3 | Cc1cscc1C1=CCN(Cc2cccc3c2CN(C2CCC(=O)NC2=O)C3=S)CC1 (stereo not drawn) [GT-08308, 3-(4-((4-(4-methylthiophen-3-yl)-3,6-dihydropyridin-1(2H)-yl)methyl)-1-thioxoisoindolin-2-yl)piperidine-2,6-dione] | 53 to 60% | 60 to 80% |  |  |  |  |  |  | B (80%< substrate protein remaining %≤ 100%) | B (80%< substrate protein remaining %≤ 100%) | B (80%< substrate protein remaining %≤ 100%) | B (80%< substrate protein remaining %≤ 100%) | A (0% ≤ substrate protein remaining % ≤ 80%) | B (80%< substrate protein remaining %≤ 100%)
4 | O=C1CCC(N2Cc3c(CN4CC=C(c5ccco5)CC4)cccc3C2=S)C(=O)N1 (stereo not drawn) [GT-08311, 3-(4-((4-(furan-2-yl)-3,6-dihydropyridin-1 (2H)-yl)methyl)-1-thioxoisoindolin-2-yl)piperidine-2,6-dione] | 60 to 80% | 80 to 100% |  |  |  |  |  |  | B (80%< substrate protein remaining %≤ 100%) | B (80%< substrate protein remaining %≤ 100%) | B (80%< substrate protein remaining %≤ 100%) | B (80%< substrate protein remaining %≤ 100%) | A (0% ≤ substrate protein remaining % ≤ 80%) | B (80%< substrate protein remaining %≤ 100%)

More lines, main results first:

Row | inhibition at 0.5 µM [1] | inhibition at 2 µM [1] | Structure (SMILES) | CK1α substrate protein remaining % (CK1α; [2]) | IKZF 1 substrate protein remaining % (IKZF1; [2]) | IKZF2 substrate protein remaining % (IKZF2; [2]) | IKZF3 substrate protein remaining % (IKZF3; [2]) | Wee1 substrate protein remaining % (WEE1; [2]) | GSPT1 substrate protein remaining % (GSPT1; [2]) | CK1α substrate protein remaining % (CK1α; [3]) | IKZF 1 substrate protein remaining % (IKZF1; [3]) | IKZF2 substrate protein remaining % (IKZF2; [3]) | IKZF3 substrate protein remaining % (IKZF3; [3]) | Wee1 substrate protein remaining % (WEE1; [3]) | GSPT1 substrate protein remaining % (GSPT1; [3])
5 | 60 to 80% | 80 to 100% | Cc1ccc(N2CCN(Cc3cccc4c3CN(C3CCC(=O)NC3=O)C4=S)CC2)s1 (stereo not drawn) [GT-08305, 3-(4-((4-(5-methylthiophen-2-yl)piperazin-1-yl)methyl)-1-thioxoisoindolin-2-yl)piperidine-2,6-dione] |  |  |  |  |  |  | B (80%< substrate protein remaining %≤ 100%) | B (80%< substrate protein remaining %≤ 100%) | A (0% ≤ substrate protein remaining % ≤ 80%) | B (80%< substrate protein remaining %≤ 100%) | B (80%< substrate protein remaining %≤ 100%) | B (80%< substrate protein remaining %≤ 100%)
6 | 53 to 60% | 80 to 100% | Cc1cscc1N1CCN(Cc2cccc3c2CN(C2CCC(=O)NC2=O)C3=S)CC1 (stereo not drawn) [GT-08306, 3-(4-((4-(4-methylthiophen-3-yl)piperazin-1-yl)methyl)-1-thioxoisoindolin-2-yl)piperidine-2,6-dione] |  |  |  |  |  |  | B (80%< substrate protein remaining %≤ 100%) | B (80%< substrate protein remaining %≤ 100%) | B (80%< substrate protein remaining %≤ 100%) | B (80%< substrate protein remaining %≤ 100%) | A (0% ≤ substrate protein remaining % ≤ 80%) | B (80%< substrate protein remaining %≤ 100%)
7 | 53 to 60% | 80 to 100% | Cc1cscc1C1CCN(Cc2cccc3c2CN(C2CCC(=O)NC2=O)C3=S)CC1 (stereo not drawn) [GT-08309, 3-(4-((4-(4-methylthiophen-3-yl)piperidin-1-yl)methyl)-1-thioxoisoindolin-2-yl)piperidine-2,6-dione] |  |  |  |  |  |  | B (80%< substrate protein remaining %≤ 100%) | B (80%< substrate protein remaining %≤ 100%) | B (80%< substrate protein remaining %≤ 100%) | B (80%< substrate protein remaining %≤ 100%) | A (0% ≤ substrate protein remaining % ≤ 80%) | B (80%< substrate protein remaining %≤ 100%)
8 | 53 to 60% | 80 to 100% | Cc1ccc(C2CCN(Cc3cccc4c3CN(C3CCC(=O)NC3=O)C4=S)CC2)s1 (stereo not drawn) [GT-08312, 3-(4-((4-(5-methylthiophen-2-yl)piperidin-1-yl)methyl)-1-thioxoisoindolin-2-yl)piperidine-2,6-dione] |  |  |  |  |  |  | B (80%< substrate protein remaining %≤ 100%) | B (80%< substrate protein remaining %≤ 100%) | B (80%< substrate protein remaining %≤ 100%) | B (80%< substrate protein remaining %≤ 100%) | A (0% ≤ substrate protein remaining % ≤ 80%) | B (80%< substrate protein remaining %≤ 100%)
9 | 40 to 53% | 60 to 80% | O=C1CCC(N2Cc3c(CN4CCN(c5ccsc5)CC4)cccc3C2=S)C(=O)N1 (stereo not drawn) [GT-08313, 3-(4-((4-(thiophen-3-yl)piperazin-1-yl)methyl)-1-thioxoisoindolin-2-yl)piperidine-2,6-dione] |  |  |  |  |  |  | B (80%< substrate protein remaining %≤ 100%) | B (80%< substrate protein remaining %≤ 100%) | A (0% ≤ substrate protein remaining % ≤ 80%) | B (80%< substrate protein remaining %≤ 100%) | A (0% ≤ substrate protein remaining % ≤ 80%) | B (80%< substrate protein remaining %≤ 100%)
